Results on 9 molecules are retold here after PubChem BioAssay (NCI).

Test systems include OVCAR-3 ovarian; LOX IMVI melanoma; IGROV1 ovarian; SK-OV-3 ovarian; HOP-62 NSCLC; OVCAR-5 ovarian; EKVX NSCLC; OVCAR-4 ovarian.
Holding throughout (assay): growth of human tumour cells (NCI), 48 h

Molecules are shown by their SMILES. Several values for one entry are separate records, joined by “and”; a condition that tells them apart may be missing. Equal entries are not always repeated.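 Assay format: 96-well plates, 48-hour exposure. GI50 = concentration required for 50% inhibition of growth. Definition used: TGI = concentration required for complete inhibition of growth.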 Where a SMILES comes first, the peptide text is derived from it. [ ]: non-standard residue; d: D form. The star is where a group is joined. ξ: configuration not given here. dIva = CC[C@@](C)(N)C(=O)O; Aib = CC(C)(N)C(=O)O; ξP = O=C(O)C1CCCN1; βAla = NCCC(=O)O; X5 = OCN*

Regarding `NS(=O)(=O)c1ccc(N=Nc2c(=O)[nH]c3ccc4[nH]cccc4c23)cc1`, the GI50 is 0.375 µM in the test on OVCAR-3 ovarian; 304 nM with LOX IMVI melanoma; 0.789 µM in the test on IGROV1 ovarian; 1.25 µM with SK-OV-3 ovarian; 653 nM in the test on HOP-62 NSCLC; 1.02 µM with OVCAR-5 ovarian. Also, the values for the GI50 in the test with EKVX NSCLC and in the test on OVCAR-4 ovarian were 2100 nM and 0.409 µM, respectively. Moreover, the TGI with OVCAR-3 ovarian is 1.98 µM; in the test with LOX IMVI melanoma, more than 25 µM; in the test with IGROV1 ovarian, more than 25 µM; in the test on SK-OV-3 ovarian, more than 25 µM; in the test on HOP-62 NSCLC, more than 25 µM; in the test on OVCAR-5 ovarian it was more than 25 µM. In addition, the TGI is more than 25 µM with EKVX NSCLC and more than 6.68 µM in the test with OVCAR-4 ovarian.
Turning to `NC(N)=NC(N)=NCc1ccco1`, the GI50 is 847 µM in the test on OVCAR-3 ovarian; 581000 nM in the test on LOX IMVI melanoma; 854 µM with IGROV1 ovarian; more than 1250 µM with SK-OV-3 ovarian; 780000 nM in the test with HOP-62 NSCLC; more than 1250 µM in the test with OVCAR-5 ovarian. For the same molecule, the GI50 was 117000 nM and 31700 nM in the test with EKVX NSCLC; 316 µM with OVCAR-4 ovarian. The TGI with OVCAR-3 ovarian, in the test with LOX IMVI melanoma, in the test with IGROV1 ovarian, in the test on SK-OV-3 ovarian, in the test on HOP-62 NSCLC and in the test with OVCAR-5 ovarian was more than 1250 µM in each case. Further, the TGI in the test on EKVX NSCLC and with OVCAR-4 ovarian was more than 1250 µM in each case.
Regarding `CC(=O)N1c2ccc(-c3ccc(C(=O)O)cc3)cc2[C@H](Nc2ccc(Cl)cc2)C[C@@H]1C`, the GI50 is 0.343 µM in the test on OVCAR-3 ovarian; 62.8 nM in the test on LOX IMVI melanoma; 0.531 µM with IGROV1 ovarian; 0.138 µM in the test on SK-OV-3 ovarian; 67.7 nM in the test on HOP-62 NSCLC; 1.45 µM in the test on OVCAR-5 ovarian. The GI50 is 452 nM in the test with EKVX NSCLC and 0.686 µM in the test with OVCAR-4 ovarian. For the same molecule, the TGI was 18.8 µM in the test with OVCAR-3 ovarian; 3.48 µM in the test with LOX IMVI melanoma; 64.9 µM in the test on IGROV1 ovarian; 22.5 µM with SK-OV-3 ovarian; 22.4 µM with HOP-62 NSCLC; more than 46.6 µM in the test with OVCAR-5 ovarian. For the same molecule, the TGI was more than 64 µM in the test with EKVX NSCLC and more than 100 µM with OVCAR-4 ovarian.
Regarding `CCN1C(=O)N(CC)C2C1NN=c1s/c(=C\c3cnc(C)n3C)c(=O)n12` (centres undefined), the GI50 is 0.593 µM in the test on OVCAR-3 ovarian; 4430 nM with LOX IMVI melanoma; 4.37 µM in the test with IGROV1 ovarian; 2.74 µM in the test on SK-OV-3 ovarian; 2590 nM with HOP-62 NSCLC; 3.68 µM in the test on OVCAR-5 ovarian. Further, the GI50 in the test on EKVX NSCLC is 3650 nM; in the test on OVCAR-4 ovarian it was 3.76 µM. The TGI in the test with OVCAR-3 ovarian is 3.41 µM; in the test with LOX IMVI melanoma, more than 100 µM; in the test with IGROV1 ovarian it was more than 100 µM; with SK-OV-3 ovarian, more than 100 µM; in the test on HOP-62 NSCLC, more than 100 µM; in the test on OVCAR-5 ovarian it was more than 100 µM. Also, the TGI in the test on EKVX NSCLC and in the test with OVCAR-4 ovarian was more than 100 µM throughout.
For the molecule `O=C(N/N=C/c1cccc(O)c1)c1ccc(C(F)(F)F)nc1Nc1cccc(C(F)(F)F)c1`, the GI50 in the test with OVCAR-3 ovarian was 1.03 µM; in the test on LOX IMVI melanoma, 1170 nM; with IGROV1 ovarian it was 2.65 µM; in the test on SK-OV-3 ovarian it was 1.77 µM; with HOP-62 NSCLC, 2350 nM; with OVCAR-5 ovarian, 1.63 µM. The GI50 in the test with EKVX NSCLC was 1010 nM; with OVCAR-4 ovarian it was 0.955 µM. In addition, the TGI in the test with OVCAR-3 ovarian was 4.79 µM; with LOX IMVI melanoma, 3.17 µM; with IGROV1 ovarian, 11.6 µM; in the test on SK-OV-3 ovarian it was 6.02 µM; in the test with HOP-62 NSCLC, 6.95 µM; with OVCAR-5 ovarian, 5.67 µM. Further, the values for the TGI with EKVX NSCLC and with OVCAR-4 ovarian were 3.37 µM and 22.8 µM, respectively.
Take `CN1C(=O)C(C)(C)Oc2c(-c3cn(C)c(=O)c4[nH]ccc34)cc(S(C)(=O)=O)cc21`: the GI50 is 0.999 µM in the test on OVCAR-3 ovarian; 462 nM in the test with LOX IMVI melanoma; 0.89 µM in the test with IGROV1 ovarian; 0.705 µM in the test on SK-OV-3 ovarian; 732 nM in the test on HOP-62 NSCLC; 1.06 µM in the test with OVCAR-5 ovarian. Also, the GI50 in the test with EKVX NSCLC was 972 nM; in the test with OVCAR-4 ovarian, 0.741 µM. The TGI with OVCAR-3 ovarian was 5.17 µM; in the test with LOX IMVI melanoma it was 1.73 µM; with IGROV1 ovarian it was more than 100 µM; in the test on SK-OV-3 ovarian it was 7.04 µM; with HOP-62 NSCLC it was more than 100 µM; with OVCAR-5 ovarian, more than 100 µM. Besides, the TGI is more than 100 µM with EKVX NSCLC and 33.6 µM with OVCAR-4 ovarian.
In the case of `C[C@H](CCCOS(C)(=O)=O)[C@H]1CC[C@H]2[C@@H]3CC[C@@H]4C[C@H](OS(C)(=O)=O)CC[C@]4(C)[C@H]3CC[C@]12C`, the GI50 in the test with OVCAR-3 ovarian is 2170 µM; in the test on LOX IMVI melanoma, 483000 nM; in the test with IGROV1 ovarian, 518 µM; in the test on SK-OV-3 ovarian, more than 2500 µM; in the test on HOP-62 NSCLC, 493000 nM; in the test with OVCAR-5 ovarian it was 391 µM. Also, the results for the GI50 in the test on EKVX NSCLC and with OVCAR-4 ovarian were 865000 nM and 1850 µM, respectively. Moreover, the TGI in the test on LOX IMVI melanoma is 1270 µM; in the test with IGROV1 ovarian, 1450 µM; with OVCAR-5 ovarian, more than 2500 µM; in the test with EKVX NSCLC it was more than 2500 µM; in the test on OVCAR-4 ovarian, more than 2500 µM.
Take `CC[C@@](C)(NC(=O)[C@H](C)NC(=O)CCNC(=O)C(C)(C)NC(=O)[C@H](C)NC(=O)[C@@H]1CCCN1C(=O)[C@@](C)(CC)NC(=O)[C@H](Cc1ccccc1)NC(=O)C1CCCN1C(=O)C(C)(C)NC(=O)C1CCCN1C(=O)C(C)(C)NC(C)=O)C(=O)NCCC(=O)N[C@@H](CC(C)C)C(=O)NC(C)(C)C(=O)NCCC(=O)N[C@@H](CC(C)C)C(=O)NC(C)(C)C(=O)NC(C)(C)C(=O)N[C@@H](CC(C)C)C(=O)NCCC(=O)NCO` (some centres undefined) (Ac-[Aib][ξP][Aib][ξP]F[dIva]PA[Aib][βAla]A[dIva][βAla]L[Aib][βAla]L[Aib][Aib]L[βAla]-X5): the GI50 in the test with OVCAR-3 ovarian is 0.144 µM; in the test with LOX IMVI melanoma, 208 nM; in the test on SK-OV-3 ovarian, 0.0725 µM; with HOP-62 NSCLC it was 180 nM; in the test on OVCAR-5 ovarian, 0.197 µM; in the test on EKVX NSCLC it was 66.1 nM. Besides, the GI50 in the test with OVCAR-4 ovarian is 0.132 µM. The TGI was found to be 0.353 µM with OVCAR-3 ovarian; 0.428 µM with LOX IMVI melanoma; 0.266 µM in the test on SK-OV-3 ovarian; 0.383 µM in the test with HOP-62 NSCLC; 0.422 µM in the test on OVCAR-5 ovarian; 0.275 µM with EKVX NSCLC. The molecule also gave a TGI in the test with OVCAR-4 ovarian of 0.346 µM.
`Cn1c(=O)c2[nH]cnc2n(C)c1=O.[CH2-]C(Cc1cccc2cc(C(=O)O)c(=O)oc12)OC.[Hg+2].[OH-]` (centres undefined): the GI50 is 17.3 µM in the test with OVCAR-3 ovarian; 16000 nM in the test with LOX IMVI melanoma; 17.3 µM with IGROV1 ovarian; more than 44 µM in the test on SK-OV-3 ovarian; 19200 nM with HOP-62 NSCLC; 18.6 µM in the test with OVCAR-5 ovarian. The GI50 with EKVX NSCLC is 20700 nM; in the test on OVCAR-4 ovarian, 17.9 µM. Besides, the TGI in the test with OVCAR-3 ovarian was 32.8 µM; in the test with LOX IMVI melanoma, 30.3 µM; in the test with IGROV1 ovarian it was 31.4 µM; in the test with SK-OV-3 ovarian, more than 58.5 µM; with HOP-62 NSCLC, 41.8 µM; in the test with OVCAR-5 ovarian, 32.7 µM. The TGI in the test on EKVX NSCLC came out at 37.4 µM; with OVCAR-4 ovarian it was 35.8 µM.
